System: SW1271 cells
Experiment: Click reaction and in-gel fluorescence of treated SW1271 cells
Format: cell-based
Settings: 100 µM, 4 h
Procedure: Leveraging the alkyne handle, a click reaction was performed with an azide containing sulfo-cyanine5 fluorophore (Cy5) to visualize proteins within the cells that were conjugated to either the fluoromethylketone 34 or the chloromethylketone 37. Cells were pretreated with either analog then harvested and washed to removed unreacted inhibitor. The cells were then lysed and the click reaction was performed on lysates. […] Further evaluation using proteomic profiling is warranted to gain a quantitative understanding on the potential for non-specificity at off-target cysteines.
Cells were treated with 100 µM inhibitor or DMSO for 4 h before being washed, scraped, and lysed in 200 µL of lysis buffer (1× PBS, 1% v/v Triton X-100, 0.1% w/v SDS, 1X HALT) for 30 min on ice with vigorous vortexing every 10 min. Samples were then pelleted at 17,000× g for 10 min before collecting the supernatant and measuring concentration using BCA. Samples were normalized to 2 mg/mL and stored at −80 °C overnight. The following day, samples were thawed. While thawing, a click cocktail was prepared (for each sample, the cocktail consists of: 3 µL of 1.7 mM THPTA in 1:4 tBuOH/DMSO, 1 µL of 50 mM CuSO4 in water, 1 µL of 1.25 mM Cy5-N3 in DMSO, and 1 µL of 50 mM TCEP in water freshly prepared). […] The samples were then analyzed by SDS-PAGE and imaged on a Licor Odyssey and subsequently Coomassie stained.

`C#Cc1ccc(COC(=O)N[C@H](C(=O)N[C@@H](C)C(=O)N[C@@H](CCC(=O)OC)C(=O)CF)C(C)C)cc1` [Cpd 34] was tested, and the “proteins labelled in SW1271 cells (Cy5 click, in-gel fluorescence)” value was “high selectivity in cells”.

— PMC7956625, “Optimization and Anti-Cancer Properties of Fluoromethylketones as Covalent Inhibitors for Ubiquitin C-Terminal Hydrolase L1” (Molecules, 2021)
